Assay: Residual curcumin during simulated shelf life, absorbance at 415 nm
Format: physicochemical
Details: over a period of 11 days, with respect to time 0
Experimental: FIG. 3. Is a graph depicting the SBP protective effect. Residual percentage of curcumin (with respect to time 0) during simulated shelf life, without and with protection by SBP. Curcumin was determined by absorbance at 415 nm (maximal absorbance of curcumin) as determined by a UV-Visible light spectrophotometer.

decrease of curcumin during simulated shelf life: approximately 40%
Structure (SMILES): COc1cc(/C=C/C(=O)CC(=O)/C=C/c2ccc(O)c(OC)c2)ccc1O [curcumin]

Source: US10064888B2, “Pectin based nanoparticles” (TECHNION RESEARCH & DEVELOPMENT FOUNDATION LTD., priority 2013, dated 2018)
